The structures appear in SMILES notation. Structures can show the parent of a compound that is named as a salt.

Assay [1] relates to MTT (mouse pheochromocytoma). Put plainly: IC50 of cell viability (ATP content); AC50 where efficacy is positive. The settings on record: (24 or 48 h).
Assay [2] deals with MTT (mouse pheochromocytoma). Put plainly: efficacy (maximal response) relative to doxorubicin = -100% and DMSO = 0%; higher = less inhibition of viability. The settings on record: (24 or 48 h).

As for `[Hg+][c]1ccccc1` [PHENYLMERCURIC BORATE], in assay [1], the “IC50 of cell viability” value was found to be 2.99 µM. Also, in assay [2], the efficacy was -91.5%.

For `O=Cc1ccccc1C=O` [PHTHARAL], the “IC50 of cell viability” value in assay [1] came to 13.3 µM. In addition, in assay [2], the efficacy is -54.4%.

As to `Cc1cc(CC(C)CC(C)(C)C)n(O)c(=O)c1` (stereo unspecified) [PIROCTONE OLAMINE], the “IC50 of cell viability” value in assay [1] was found to be 15 µM. Moreover, the efficacy in assay [2] was -49%.

Regarding `Nc1ccc2cc3ccc(N)cc3nc2c1` [PROFLAVINE HEMISULFATE], the “IC50 of cell viability” value in assay [1] came out at 8.41 µM. The efficacy in assay [2] was -91.5%.

`COc1ccc(CC(N)C(=O)NC2C(CO)OC(n3cnc4c(N(C)C)ncnc43)C2O)cc1.Cl.Cl` (stereo unspecified) [PUROMYCIN HYDROCHLORIDE]: the “IC50 of cell viability” value in assay [1] was found to be 11.9 µM. For the same compound, the efficacy in assay [2] is -63.1%.

On to `CC(=O)O[C@H]1C(=O)[C@@]2(C)[C@H]([C@H](OC(=O)c3ccccc3)[C@]3(O)CC(OC(=O)C(O)C(NC(=O)c4ccccc4)c4ccccc4)C(C)=C1C3(C)C)[C@]1(OC(C)=O)CO[C@@H]1C[C@@H]2O` (stereo partly specified) [Paclitaxel], for which the “IC50 of cell viability” value in assay [1] worked out at 0.0376 µM. In assay [2], the efficacy is -50.9%.

`CCCCc1ccc2[nH]c(NC(=O)OC)nc2c1` [Parbendazole]: the “IC50 of cell viability” value in assay [1] amounted to 0.453 µM. Besides, the efficacy in assay [2] was -45.1%.

Regarding `C=C1C(=O)O[C@@H]2[C@@H]1CC/C(C)=C\CC[C@@]1(C)O[C@H]21` [Parthenolide], the “IC50 of cell viability” value in assay [1] came to 8.41 µM. Besides, in assay [2], the efficacy is -104%.

Regarding `NNCCc1ccccc1` [Phenelzine sulfate], the “IC50 of cell viability” value in assay [1] was determined as 5.08 µM. For the same compound, the efficacy in assay [2] is -52.6%.

For the compound `Cc1ccc2c(c1)c1c3n2CCNC3CCC1` (stereo unspecified) [Pirlindole mesylate], in assay [1], the “IC50 of cell viability” value worked out at 21.1 µM. Further, the efficacy in assay [2] is -45.7%.

As to `CC(C)NC(=N)NC(=N)Nc1ccc(Cl)cc1` [Proguanil hydrochloride], in assay [1], the “IC50 of cell viability” value was 4.53 µM. The efficacy in assay [2] is -59%.

Take `CCc1nc(N)nc(N)c1-c1ccc(Cl)cc1` [Pyrimethamine]: the “IC50 of cell viability” value in assay [1] stood at 8.41 µM. Besides, the efficacy in assay [2] was -35%.

With `Cc1cc(/C=C\c2ccc3cc(N(C)C)ccc3[n+]2C)c(C)n1-c1ccccc1.Cc1cc(/C=C\c2ccc3cc(N(C)C)ccc3[n+]2C)c(C)n1-c1ccccc1.O=C([O-])c1cc2ccccc2c(Cc2c(O)c(C(=O)[O-])cc3ccccc23)c1O` [Pyrvinium pamoate], the “IC50 of cell viability” value in assay [1] is 0.64 µM. Besides, the efficacy in assay [2] is -33.3%.

As to `COc1cc(NCCCC(C)N)c2ncccc2c1` (stereo unspecified) [QUINOCIDUM], in assay [1], the “IC50 of cell viability” value amounted to 18.8 µM. Also, the efficacy in assay [2] was -93.9%.

In the case of `CCN1/C(=C/C=C/c2ccc3ccccc3[n+]2CC)C=Cc2ccccc21` [Quinaldine blue], the “IC50 of cell viability” value in assay [1] was determined as 0.299 µM. Further, the efficacy in assay [2] was -34.9%.

Take `C#C[C@]1(O)CC[C@H]2[C@@H]3CCc4cc(OC5CCCC5)ccc4[C@H]3CC[C@@]21C` [Quinestrol]: in assay [1], the “IC50 of cell viability” value turned out to be 18.8 µM. For the same compound, in assay [2], the efficacy is -61.1%.

`COC(=O)C12CCC(C)(C)CC1C3C(=O)\C=C4/C(C)(CCC5C(C)(C)C(=O)\C(=C/C45C)C#N)C3(C)CC2` (stereo unspecified) [RTA 402]: in assay [1], the “IC50 of cell viability” value was 6.68 µM. For the same compound, in assay [2], the efficacy was -108%.

In the case of `CC[C@@]1(O)C(=O)OC/C2=C1/C=C/3N(CC4=CC5=C(C=CC=C5[N+]([O-])=O)N=C34)C2=O` [RUBITECAN], the “IC50 of cell viability” value in assay [1] came to 0.422 µM. Besides, the efficacy in assay [2] was -54.5%.

For the compound `C[C@@H]1CN(CCCn2c3ccccc3c3ccccc32)C[C@H](C)N1` [Rimcazole dihydrochloride], in assay [1], the “IC50 of cell viability” value was determined as 21.1 µM. In assay [2], the efficacy was -89.8%.

As for `C=C(C)[C@H]1Cc2c(ccc3c2O[C@@H]2COc4cc(OC)c(OC)cc4[C@@H]2C3=O)O1` [Rotenone], in assay [1], the “IC50 of cell viability” value was found to be 2.66 µM. Further, the efficacy in assay [2] is -124%.

Consider `[Na+].CCC(C1CCC(C)C(O1)C(C)C(O)C(C)C(=O)C(CC)C2OC\3(O[C@]4(CC[C@@](C)(O4)C5CC[C@@](O)(CC)C(C)O5)C(O)\C=C3)C(C)CC2C)C([O-])=O` (stereo partly specified) [SALINOMYCIN, SODIUM], for which the “IC50 of cell viability” value in assay [1] is 3.35 µM. In addition, in assay [2], the efficacy is -47.9%.

Turning to `CNC(=O)c1cc(Oc2ccc(NC(=O)Nc3ccc(Cl)c(C(F)(F)F)c3)cc2)ccn1` [SORAFENIB TOSYLATE], in assay [1], the “IC50 of cell viability” value is 8.41 µM. Also, in assay [2], the efficacy is -44.4%.

With `O=C(CCCCCCC(=O)Nc1ccccc1)NO` [SUBEROYLANILIDE HYDROXAMIC ACID], the “IC50 of cell viability” value in assay [1] turned out to be 2.37 µM. In addition, the efficacy in assay [2] was -58.6%.

Consider `C[n+]1cc2c3c(ccc2c2ccc4cc5c(cc4c21)OCO5)OCO3` [Sanguinarine], for which the “IC50 of cell viability” value in assay [1] was determined as 8.41 µM. In addition, in assay [2], the efficacy is -87.7%.

Consider `CN[C@H]1CC[C@@H](c2ccc(Cl)c(Cl)c2)c2ccccc21` [Sertraline hydrochloride (Zoloft)], for which, in assay [1], the “IC50 of cell viability” value worked out at 15 µM. Moreover, in assay [2], the efficacy is -39.9%.

As for `CC(C)COC(=O)OCN1C(=O)CN(CCN2CC(=O)N(COC(=O)OCC(C)C)C(=O)C2)CC1=O` [Sobuzoxane], the “IC50 of cell viability” value in assay [1] is 0.841 µM. The efficacy in assay [2] is -56.1%.

Turning to `O=C(CCCCCCC(=O)Nc1ccccc1)NO` [Suberoylanilide Hydroxamic Acid], the “IC50 of cell viability” value in assay [1] is 0.0531 µM. Besides, the efficacy in assay [2] is -43.5%.

In the case of `O=c1n(CC2CO2)c(=O)n(CC2CO2)c(=O)n1CC1CO1` (stereo unspecified) [TEROXIRONUM], the “IC50 of cell viability” value in assay [1] was determined as 4.22 µM. For the same compound, the efficacy in assay [2] is -43.7%.

Consider `C[CH2][Hg][S]c1ccccc1C(=O)[O-].[Na+]` [THIMEROSAL], for which the “IC50 of cell viability” value in assay [1] is 2.99 µM. For the same compound, the efficacy in assay [2] is -86.9%.

For `CCOC(=O)c1c(N)sc2c1CCN(Cc1ccccc1)C2` [TINORIDINE HYDROCHLORIDE], the “IC50 of cell viability” value in assay [1] came to 11.9 µM. Also, in assay [2], the efficacy is -45.5%.

In the case of `C[N+]12CCCC[C@@H]1CCC(=C(c1cccs1)c1cccs1)C2` (stereo partly specified) [TIQUIZIUM BROMIDE], in assay [1], the “IC50 of cell viability” value came out at 1.88 µM. Also, the efficacy in assay [2] was -51.7%.

As to `Cl.CC[C@@]1(O)C(=O)OCC/2=C1/C=C/3N(CC4=C3N=C5C=CC(=C(CN(C)C)C5=C4)O)C2=O` [TOPOTECAN HYDROCHLORIDE], the “IC50 of cell viability” value in assay [1] stood at 4.73 µM. For the same compound, the efficacy in assay [2] was -89.7%.

As for `COc1cc(NCc2ccc3nc(N)nc(N)c3c2C)cc(OC)c1OC` [TRIMETREXATE GLUCURONATE], in assay [1], the “IC50 of cell viability” value amounted to 0.376 µM. Further, in assay [2], the efficacy is -50.7%.

On to `Cc1cc(-c2ccc(/N=N/c3c(S(=O)(=O)[O-])cc4cc(S(=O)(=O)[O-])cc(N)c4c3O)c(C)c2)ccc1/N=N/c1c(S(=O)(=O)[O-])cc2cc(S(=O)(=O)[O-])cc(N)c2c1O` [TRYPAN BLUE], for which, in assay [1], the “IC50 of cell viability” value came to 2.37 µM. Moreover, the efficacy in assay [2] was -37.4%.

In the case of `c1ccc2[nH]c(-c3cscn3)nc2c1` [Thiabendazole], in assay [1], the “IC50 of cell viability” value stood at 9.44 µM. Further, in assay [2], the efficacy was -40%.

Consider `OC[C@H]1O[C@@H](n2cnc3c(S)ncnc32)[C@H](O)[C@@H]1O` [Thionosine], for which the “IC50 of cell viability” value in assay [1] was 18.8 µM. Besides, the efficacy in assay [2] is -85.4%.

Take `O=C(Nc1ccc(Br)cc1)c1cc(Br)c(Br)s1` [Tibrofan]: the “IC50 of cell viability” value in assay [1] was 26.6 µM. Moreover, the efficacy in assay [2] is -64.5%.

In the case of `CCCOc1ccc2nc(NC(=O)OC)sc2c1` [Tioxidazole], in assay [1], the “IC50 of cell viability” value was determined as 11.9 µM. Besides, the efficacy in assay [2] was -55.6%.

As to `O=C(Nc1ccc(Cl)cc1)Nc1ccc(Cl)c(Cl)c1` [Triclocarban], in assay [1], the “IC50 of cell viability” value is 26.6 µM. Further, in assay [2], the efficacy was -121%.

For the compound `COc1cc2c(Nc3ccc(Br)cc3F)ncnc2cc1OCC1CCN(C)CC1` [VANDETANIB], in assay [1], the “IC50 of cell viability” value came to 26.6 µM. Besides, the efficacy in assay [2] was -102%.

Regarding `CCCCC(=O)OCC(=O)[C@]1(O)Cc2c(O)c3c(c(O)c2[C@H](OC2CC(NC(=O)C(F)(F)F)C(O)C(C)O2)C1)C(=O)c1c(OC)cccc1C3=O` (stereo partly specified) [Valrubicin], the “IC50 of cell viability” value in assay [1] turned out to be 16.8 µM. In addition, the efficacy in assay [2] was -78%.

Take `[Zn++].[O-]N1\C=C/C=C\C1=S.[O-]N2\C=C/C=C\C2=S` [Zinc pyrithione]: the “IC50 of cell viability” value in assay [1] was found to be 2.11 µM. For the same compound, the efficacy in assay [2] was -90.6%.

Regarding `OCCN1CCN(CC/C=C2/c3ccccc3Sc3ccc(C(F)(F)F)cc32)CC1` [cis-(Z)-FLUPENTHIXOL], the “IC50 of cell viability” value in assay [1] turned out to be 23.7 µM. For the same compound, in assay [2], the efficacy was -85.6%.

For the origin of these results see the supplement of paper PMC3974653.
